Entries after “also recorded” stand apart in the source; their conditions may differ.
System: pRb/MDM2 complex
Test: pRb immunoprecipitation and anti-MDM2 immunoblot from TSA-treated T98G cells
Type: cell-based
Conditions: TSA 5 μM for 18-20 h, FIG. 4g
Procedure: Conversely, conditions that enhance acetylation would be expected to promote the interaction of pRb with MDM2. To this end, we treated T98G cells with trichostatin A (TSA), which blocks histone deacetylase (HDAC) activity 18 and thereafter assessed the interaction between pRb and MDM2.
For immunoprecipitation of endogenous acetylated pRb, cell pellets collected from SAOS2, U2OS, T98G, A31, and HEK293 cells were lysed in IPH buffer (50 mM Tris pH 8.0, 150 mM NaCl, 0.5% NP-40, protease inhibitor cocktail (Roche), 5mM EDTA, 5 μM TSA (Sigma)). The protein concentration of the extracts was determined by Bradford assay (BioRad). Protein-A-agarose was first incubated with anti-Rb antibody IF8 and C15 for 1-2 h at 4 C. […] Proteins bound to the beads were elute with 3×SDS loading buffer and analysed by Western blotting using appropriated antibodies. […]
Domains in E1A for p300-Dependent Acetylation of pRb and Acetylated pRb Binds to MDM2. • a) In vitro acetylation assay in which Flag-tagged p3001135-2414 (0.3 μg) together with GST-pRb (2 μg) was incubated with either wild-type GST-E1A, GST-Δ36 or GST-pm928 (1 μg) as indicated. The effect of the buffer (track 5) or GST (1 μg; track 1) alone was also assessed. The quantification of the level of p300 autoacetylation (b) and pRb acetylation (c) in the presence of the E1A derivatives is shown. […]

## CC(/C=C/C(=O)NO)=C\[C@@H](C)C(=O)c1ccc(N(C)C)cc1 [TSA, trichostatin A]
  interaction between pRb and MDM2 (pRb/MDM2 complex in pRb immunoprecipitate): presence of MDM2 in the pRb immunocomplex; also recorded: clearly detectable; also recorded: augments the interaction between pRb and MDM2

From US7238493B2, “Acetylation of pRb by p300 assay method for compounds which modulate this process” (The University Court of the University of Glasgow, priority 2000, dated 2007)
